Laboratory results reported in patent US8071645B2, “Systems and methods for treating human inflammatory and proliferative diseases and wounds, with fatty acid metabolism inhibitors and/or glycolytic inhibitors” (The Regents of the University of Colorado, priority 2003, dated 2011).

What was measured:
Format in all cases: cell-based
L1210 cells = assay: DCFDA staining (reactive intermediates) of L1210 cells; details: 24 hours of incubation, FIG. 12A
Procedure: (§1) Flow Cytometry. Cells were harvested, counted, and resuspended at 10^6 cells/100 μl of PBS containing 2.5% fetal calf serum in preparation for flow cytometric analysis. Cells were stained for intracellular H202 using 6-carboxy-2′,7′-dichlorodihydrofluorescein diacetate (DCF-DA, Molecular Probes, Eugene, Oreg.). Briefly, cells were incubated at 37° with 1 mM DCF-DA for 20 minutes, washed twice in PBS containing 2.5% fetal calf serum and analyzed flow cytometrically. Mitochondrial membrane potential was assessed using Mitotracker Red (CM-H2XROS, Molecular Probes, Eugene, Oreg.). […] The cells were incubated at 37° for 20 minutes, washed twice in PBS containing 2.5% fetal calf serum and analyzed flow cytometrically. Data were acquired on a Coulter Elite Epics or Excel flow cytometer (Coulter, Hialeah, Fla.) and analyzed with CellQuest software, (Becton Dickinson, San Jose, Calif.). […] Each sample population was classified for cell size (forward scatter) and complexity (side scatter), gated on a population of interest and evaluated using 5,000 cells. […]
We measured the effects of etomoxir on metabolism by measuring mitochondrial membrane potential with a fluorescent dye (Mitotracker Red, Molecular Probes, Eugene, Oreg.) which fluoresces as a function of mitochondrial potential. […]

[1] = tested on: cell surface Fas (CD95) on B16F1 melanoma cells; assay: cell surface Fas (CD95) expression on B16F1 melanoma cells; details: 48 hours
Procedure: Cell Surface Staining. Non-permeabilized cells were stained with antibodies to the cell surface receptors Fas (CD95) (Pharmingen) or with antibodies to uncoupling proteins (anti-UCP2 antibody) (Alpha Diagnostic International). Antibodies for both the isotype control and actual stain were added to the cell suspension, mixed, and then placed on ice for and incubation of 25 minutes in the dark. Subsequently the cells were centrifuged at 300×g for 5 minutes and the supernatant removed. The cells were washed one time with 100 μL of PBS/2.5% FBS and then transferred into flow cytometric tubes containing 500 μL of PBS/2.5% FBS for analysis.
B16F1 melanoma cells were cultured at a concentration of 0.5 to 1 million cells per ml. Cells were harvested and analyzed by flow cytometry. Dot plots are shown in FIG. 15 as functions of live versus dead cells. Each dot on the dot plot represents one cell. Five thousand cells were assessed for forward scatter (FS), as a function of cell size, versus side scatter (SS), as a function of cellular granularity. […]
Referring to FIGS. 17 and 18, B16F1 melanoma cells of Example 12 were untreated or treated with etomoxir at the indicated concentrations for 48 hours. Cells were harvested, stained with fluorochrome conjugated anti-Fas antibody (Pharmingen) and analyzed by flow cytometry.

[2] = tested on: cell-surface Fas on drug resistant L1210/DDP cells; assay: cell-surface Fas expression on L1210/DDP cells by flow cytometry
Procedure: as §1
Drug sensitive L1210 cells and drug resistant L1210/DDP cells were cultured with etomoxir for 24 hours (Tx indicates treatment with etomoxir). The level of cell-surface Fas was determined using fluorochrome conjugated anti-Fas antibodies and flow cytometry. The Fas levels are measured relative to a control for staining artifacts. […]

B16F1 melanoma cells = assay: DCFDA staining (reactive oxygen species) of B16F1 melanoma cells; details: 48 hours, FIG. 19
Procedure: Metabolic Activity Assay. Cells were prepared as previously described. The specific metabolic dye was added and mixed into the cell suspension. This plate was then placed into the 37° incubator for a 20-minute incubation. After incubation, the cells were centrifuged at 300×g for 5 minutes, and the supernatant was removed. The cells were then washed once with PBS/2.5% FBS and transferred into flow cytometric tubes containing 500 μL of PBS/2.5% FBS for analysis
5-(and -6)-Chloromethyl-2′,7′-dichlorodihydrofluorescein diacetate (CMH2DCFDA) (Molecular Probes). One vial of DCFda provides 10 tests and contains 50 μg. This is unstable and can't be stored. Therefore, each vial was opened and 43 μL of DMSO was added. […]
Geometric Mean Fluorescence. […] Once the stained sample was plotted against the control (isotype or unstained), geometric mean fluorescence values were obtained for both histogram peaks. The stained control sample value was subtracted from sample to identify the actual fluorescence of the stained sample over that of the control.
B16F1 melanoma cells of Example 12 were untreated or treated with etomoxir at the indicated concentrations for 48 hours. Cells were harvested, stained with DCFDA as described in Materials and Methods, and analyzed by flow cytometry. The value of DCFDA was then calculated as described in Materials and Methods.

[3] = tested on: human leukemia RU937 cells; assay: mitochondrial membrane potential (MitoTracker) of RU937 cells; details: 24 hours of incubation, FIG. 13
Procedure: Flow Cytometry. Cells were harvested, counted, and resuspended at 10^6 cells/100 μl of PBS containing 2.5% fetal calf serum in preparation for flow cytometric analysis. Cells were stained for intracellular H202 using 6-carboxy-2′,7′-dichlorodihydrofluorescein diacetate (DCF-DA, Molecular Probes, Eugene, Oreg.). Briefly, cells were incubated at 37° with 1 mM DCF-DA for 20 minutes, washed twice in PBS containing 2.5% fetal calf serum and analyzed flow cytometrically. Mitochondrial membrane potential was assessed using Mitotracker Red (CM-H2XROS, Molecular Probes, Eugene, Oreg.). The cells were resuspended in PBS containing 2.5% fetal calf serum containing a final concentration of 0.5 micromolar Mitotracker dye. The cells were incubated at 37° for 20 minutes, washed twice in PBS containing 2.5% fetal calf serum and analyzed flow cytometrically. Data were acquired on a Coulter Elite Epics or Excel flow cytometer (Coulter, Hialeah, Fla.) and analyzed with CellQuest software, (Becton Dickinson, San Jose, Calif.). […] Each sample population was classified for cell size (forward scatter) and complexity (side scatter), gated on a population of interest and evaluated using 5,000 cells. […]
The effects of etomoxir on human leukemia RU937 cells was determined. […]

In the case of CCOC(=O)C1(CCCCCCOc2ccc(Cl)cc2)CO1 (stereo not shown) [etomoxir, 2-(6-(4-chlorophenoxy)-hexyl)-oxirane-2-carboxylic acid ethyl ester], the “free radicals (reactive intermediates), DCFDA staining” value (L1210 cells) is reported as “increase”, the “cell surface Fas expression, live cell population” value ([1]; FIG. 17) is reported as “dose dependent increase” and the “cell surface Fas expression, dead cell population” value ([1]; FIG. 18) is reported as “dose dependent increase”. The “cell surface Fas” value ([2]; L1210/DDP, cultured with etomoxir for 24 hours, FIG. 7) was “significant increases”, the “cell surface Fas on methotrexate-treated cells” value ([2]; L1210 DDP, etomoxir with methotrexate, FIG. 8) was “promotes increases” and the “reactive oxygen species as measured by DCFDA” value (B16F1 melanoma cells) was “dose dependent increase”. The “levels of mitochondrial membrane potential (MitoTracker)” value [3] was “increased”.
